This is an account of results in patent publication US20230255219A1, “SLOW RELEASE COMPOSITE ACTIVE FILMS/PACKAGING TO REDUCE FOODBORNE PATHOGENS AND IMPROVE SHELF LIFE OF RAW AND READY TO EAT FOODS” (The Penn State Research Foundation, priority 2019, published 2023).

Data set [1] deals with L. monocytogenes cocktail. The experiment in a line: Minimum bactericidal concentration (MBC), plating of wells on selective media. The data set is classed as cell-based, Listeria monocytogenes. The method, then: (§1) A resazurin indicator-based, 96-well microplate dilution method (Elshikh et al., 2016) was used for in vitro determination of MIC and MBC of LAE, nisin and thymol against different foodborne pathogens. Overnight cultures were grown in TSB (37° C.) and a cocktail of STEC, Salmonella spp., L. monocytogenes and S. aureus was prepared by mixing equal volumes of the three corresponding strains to obtain approximately 8 log10 CFU/mL of the pathogens. Bacterial cells were washed by centrifugation at 8000 rpm/10 minutes, and cell pellets were re-suspended in the same volume of sterile Mueller Hinton Broth (MHB; Difco).
(§2) FIG. 1 illustrates the resazurin indicator-based, 96-well microplate dilution method for MIC determination of different antimicrobials against bacterial cocktails. A 100,000 IU/mL concentration of nisin (VWR) was dissolved in HCl 0.02N; 10% thymol (VWR) was prepared in concentrated ethanol; and 10% LAE (MB) was prepared in sterile distilled water. All antimicrobials were sterilized by filtration through a 0.22 μm filter (Pall; Ann Arbor, Mich.).). Each antimicrobial was diluted in sterile MHB to obtain a final concentration of 50,000 IU/mL of nisin, 5% thymol, and 5% LAE. Using a multi-channel pipette (Eppendorf; Haoppauge, N.Y.), one hundred μL of each antimicrobial in MHB was dispensed into a row in a 96-well microplate. Subsequent serial dilutions of the antimicrobials were made in MHB using the multi-channel pipette by transferring and mixing 50 μL of each compound to obtain antimicrobial concentrations of nisin (50,000-390.6 IU/mL), thymol (5-0.039%) and LAE (5-0.039%). Bacterial cocktails were diluted 1:100 in a sterile MHB to reach a concentration of approximately 6 log10 CFU/mL, with 50 μL of each cocktail added to the respective well. […]
(§3) The MBC was determined by directly inoculating the content of wells with concentrations higher than the MIC value on selective growth media. […] The MBC value was determined as the lowest concentration when there were no bacterial colonies observed (Elshikh et al., 2016).

In data set [2] the test system is S. aureus cocktail. The data set is classed as cell-based, Staphylococcus aureus.
The conditions of data set [3]: cited from earlier work.
Data set [4] concerns Salmonella spp. cocktail. As to the kind of experiment: Minimum bactericidal concentration (MBC), plating of wells on selective media. The data set is classed as cell-based. On the procedure: as §1, §2, §3
Data set [5] has as its system Salmonella spp. cocktail. The data set is classed as cell-based.
Data set [6] deals with L. monocytogenes cocktail. The data set is classed as cell-based, Listeria monocytogenes.
In data set [7] the test system is STEC cocktail. The data set is classed as cell-based.
Data set [8] relates to S. aureus cocktail. As to the kind of experiment: Minimum bactericidal concentration (MBC), plating of wells on selective media. The data set is classed as cell-based, Staphylococcus aureus. On the procedure: as §1, §2, §3
Data set [9] deals with all tested bacterial pathogens (STEC, Salmonella spp., L. monocytogenes, S. aureus). The data set is classed as cell-based.
The test system of data set [10] is STEC cocktail. The data set is classed as cell-based. The source holds these as a separate data set.

`CCCCCCCCCCCC(=O)N[C@@H](CCCN=C(N)N)C(=O)OCC` [LAE, lauric arginate]: the results for the “MBC, LAE” value (in [1]; against Salmonella spp. cocktail [4]; in the data set on S. aureus cocktail [8]) were 0.313 % (V/V), 0.625 % (V/V) and 0.313 % (V/V), respectively. Further, the “MIC, LAE” value (in the data set on S. aureus cocktail [2] (24 h at 37° C.); against Salmonella spp. cocktail [5] (24 h at 37° C.); in [6] (24 h at 37° C.); with STEC cocktail [7] (24 h at 37° C.)) was 0.078 % (V/V) throughout. Further, in data set [3], the “metabolism of LAE in the human body” value was “rapidly metabolized in the human body to lauric acid and arginine”. For the same compound, in data set [9], the “concentration of LAE that inhibited all tested bacterial pathogens” value is listed as 0.078%.

For the compound `Cc1ccc(C(C)C)c(O)c1` [Thymol, thymol], the “MBC, Thymol” value is on record as 1.25 % (W/V) in [1], 2.5 % (W/V) in the data set on Salmonella spp. cocktail [4], 2.5 % (W/V) in the data set on STEC cocktail [10] and 1.25 % (W/V) against S. aureus cocktail [8]. Further, the “MIC, Thymol” value against S. aureus cocktail [2] is on record as 0.156 % (W/V); against Salmonella spp. cocktail [5] it was 0.625 % (W/V); in data set [6] it was 0.625 % (W/V); in the data set with STEC cocktail [7], 1.25 % (W/V).

On to nisin, for which the “MBC, Nisin” value is given as “Nil (Nil indicates there was no growth inhibition, nor killing effect at ≤ 50,000 IU/mL)” in [1]; “Nil (Nil indicates there was no growth inhibition, nor killing effect at ≤ 50,000 IU/mL)” with Salmonella spp. cocktail [4]; “Nil (key: Nil indicates there was no growth inhibition, nor killing effect at ≤ 50,000 IU/mL)” against STEC cocktail [10]; “Nil (Nil indicates there was no growth inhibition, nor killing effect at ≤ 50,000 IU/mL)” against S. aureus cocktail [8]. For the same compound, the “MIC, Nisin” value is on record as “Nil (key: Nil indicates there was no growth inhibition, nor killing effect at ≤ 50,000 IU/mL)” in the data set with S. aureus cocktail [2] (24 h at 37° C.); “Nil (key: Nil indicates there was no growth inhibition, nor killing effect at ≤ 50,000 IU/mL)” against Salmonella spp. cocktail [5] (24 h at 37° C.); “Nil (key: Nil indicates there was no growth inhibition, nor killing effect at ≤ 50,000 IU/mL)” in [6] (24 h at 37° C.); “Nil (key: Nil indicates there was no growth inhibition, nor killing effect at ≤ 50,000 IU/mL)” with STEC cocktail [7] (24 h at 37° C.). The “antibacterial activity of nisin in MIC and MBC experiments” value in data set [9] is given as “very poor antibacterial activity”.
